For data set [1], the system named is HSV-2. Description: Multiplicity of infection study using the HSV-2 ELISA assay. The data set is classed as cell-based, Herpes Simplex virus 2. The following applies: 18 hours. As for the experimental part:
(§1) The ability of cyclomarin-A to inhibit HSV-2 was tested in a culture-based ELISA assay. This assay measures viral glycoprotein inserted into the surface membrane of infected cells, a step in the process of viral replication. Vero cells (African Green monkey kidney cells) were grown in RPMI-1640 medium with L-glutamine (Quality Biological, Gaithersburg, Md.) with 5% fetal bovine serum (FBS) and passaged twice weekly by trypsinization. These were plated in 96-well sterile tissue culture plates at 2×10^4 cells/well. After incubation overnight at 37° C. in a humidified atmosphere with 5% CO2, wells were inoculated with 1000 plaque forming units per well (PFU/well) HSV-2 (MacIntyre strain, ATCC # VR-539), previously titered by plaque assay and stored at -80° C. Virus was absorbed for 1 hour. Cyclomarin-A was diluted to concentrations between 10^-7 g/ml and 10^-4 g/ml in 50% DMSO and added to the cells in a final volume of 1.5 μl with 150 μl RPMI and 1% FBS. The final DMSO concentration was 0.5%. Plates were incubated for 18 hours at 37° C., and fixed with 10% formalin to inactivate the virus.
Plates were incubated for 1 hour with a rabbit anti-HSV-2 IgG antibody diluted 1:5000 (DAKO, Carpenteria, Calif., catalog #B116), washed with PBS and incubated another hour with an HRP-labeled goat anti-rabbit antibody diluted 1:4000 (DAKO, catalog #PO448). After washing with PBS, TMB substrate was added for 15 minutes and reaction was stopped with addition of 1M phosphoric acid. OD was measured spectrophotometrically at a wavelength of 450 nm. Percent inhibition of HSV-2 was calculated against an infected, vehicle control (DMSO) with no drug added.
The effect of multiplicity of virus infection on cyclomarin-A activity was examined using the HSV-2 ELISA assay described in Example 1. Vero cell cultures were inoculated with HSV-2 to a final concentration of 500, 1000, 2500, and 5000 PFU/well. After cyclomarin-A was added to cells in 150 μl RPMI and 1% FBS, cells were incubated for 18 hours at which time the ELISA assay was completed. Percent inhibition of HSV-2 replication was calculated against an infected, vehicle control (DMSO) at the appropriate MOI with no drug added.
On the technique in general: ELISA stands for enzyme-linked immunosorbent assay.

The test system of data set [2] is HSV-2. Description: Combination study with acyclovir using the HSV-2 ELISA assay. The data set is classed as cell-based, Herpes Simplex virus 2. Particulars: cyclomarin-A 0 to 16 μg/ml, acyclovir 0 to 5 μg/ml. On the procedure: as §1, with “The final DMSO concentration was 0.5%. Plates were incubated for 18 hours at 37° C., and fixed with 10% formalin to inactivate the virus.” left out
Plates were incubated for 1 hour with a rabbit anti-HSV-2 IgG antibody diluted 1:5000 (DAKO, Carpenteria, Calif., catalog #B116), washed with PBS and incubated another hour with an HRP-labeled goat anti-rabbit antibody diluted 1:4000 (DAKO, catalog #PO448). […] OD was measured spectrophotometrically at a wavelength of 450 nm. Percent inhibition of HSV-2 was calculated against an infected, vehicle control (DMSO) with no drug added. […]

In a further data set the test system is uninfected Vero cells. Description: Vero cell growth inhibition (SRB stain). The data set is classed as cell-based, African Green monkey. The following applies: 48 hours. As for the experimental part: The effect of cyclomarin-A on the growth of uninfected Vero cells was examined. Vero cells were grown in RPMI with 5% FBS and passaged twice weekly by trypsinization. These were plated in 96 well sterile tissue culture plates at 2×10^4 cells/well in 200 μl and incubated overnight at 37° C. in a humidified atmosphere with 5% CO2. Cyclomarin-A (10 mg/ml stock solution) was serially diluted (100, 50, 25 and 12.5 μg/ml final concentrations) in 100% DMSO, and added to the cells in a volume of 2 μl. Final DMSO concentration was 1%. Plates were incubated at 37° C. for 48 hours. Cells were fixed by addition of 50% TCA to each well. Plates were incubated at 4° C. for 1 hour. After washing cells with distilled water 0.4% SRB (sulforhodamine B in 1% acetic acid) stain was added to each well. After 25 minutes the stain was washed away with 1% acetic acid and wells were allowed to dry. The remaining stain was resolubilized in 10 mM Tris pH 10.0. Optical density (OD) was determined spectrophotometrically at 650 nm. Percent inhibition of cell growth was calculated based on no drug, vehicle (1% DMSO) control wells as 100%.
On the technique in general: In SRB staining, fixed cells bind dye roughly in proportion to their protein.

Regarding `COC(c1ccccc1)[C@@H]1NC(=O)[C@H](C)NC(=O)[C@H](CC(C)CO)N(C)C(=O)[C@H](C(O)c2cn(C(C)(C)C3CO3)c3ccccc23)NC(=O)[C@H](C(C)C=C(C)C)NC(=O)[C@H](CC(C)C)N(C)C(=O)[C@H](C(C)C)NC1=O` (stereo partly shown) [cyclomarin-A], the “Percent inhibition of HSV-2 replication” value is listed as 51% in the data set with HSV-2 [1] (6.25 μg/ml cyclomarin-A, 500 PFU/well); 40% in the data set on HSV-2 [1] (6.25 μg/ml cyclomarin-A, 1000 PFU/well); 17% with HSV-2 [1] (6.25 μg/ml cyclomarin-A, 2,500 PFU/well); “no detectable inhibition” with HSV-2 [1] (6.25 μg/ml cyclomarin-A, 5000 PFU/well). The “Interference with acyclovir in combination” value in the data set on HSV-2 [2] is “no interference with acyclovir”. For the same molecule, the “Percent inhibition of cell growth of uninfected Vero cells” value in the data set with uninfected Vero cells (100 μg/ml) is listed as 27-33%. In addition, the “Effect on growth of uninfected Vero cells” value in the data set with uninfected Vero cells (concentrations below 50 μg/ml) was “no effect on cell growth”.
